The values that follow come from patent US9987368B2, “Pharmaceutical composition comprising polypeptide” (SANTEN PHARMACEUTICAL CO., LTD., priority 2015, dated 2018).

Data set [1] is described as follows: Dissolution performance evaluation test. Type of data set: physicochemical. Conditions: for Property: visually checked. As to the method: Drug dissolving abilities of various solutions were examined.
The compound represented by the above formula (2) (2-[[[2-[(hydroxyacetyl)amino]-4-pyridinyl]methyl]thio]-N-[4-(trifluoromethoxy)phenyl]-3-pyridinecarboxamide, hereinafter also referred to as the drug A; prepared in accordance with the method described in the specification of US Patent Application Publication No. 2007/0149574) was added to each solvent (total 1 mL) out of various solvents of DMSO (GAYLORD), PEG 400 (Nacalai Tesque), and water, and was stirred at room temperature (25° C.) overnight (for 8 hours). Then, the properties of the resultant solvents were visually checked.

Data set [2] concerns VEGF-induced HUVEC proliferation. Conditions: US 2007/0149574; cited from earlier work.
The test system of data set [3] is cancer models in mice. Conditions: US 2007/0149574; cited from earlier work.
Data set [4] relates to adjuvant arthritis models in rats. Conditions: US 2007/0149574; cited from earlier work.
For data set [5], the system named is choroidal neovascularization models in rats. Conditions: US 2007/0149574; cited from earlier work.
Data set [6] in a line: Depot formation evaluation test (1): gelatinizers in DMSO/water. Type of data set: physicochemical. Conditions: solution of DMSO/water at the volume ratio (9:1). As to the method:
Depot (deposited mass) formations of various kinds of gelatinizers were examined.
Compositions 1 to 6 were prepared by blending each of various kinds of gelatinizers to a solvent of DMSO/water (volume ratio of 9:1) such that the gelatinizer is contained at 0.1% (w/v) (0.1% by mass of the gelatinizer is contained per 100 mL of the solution of DMSO/water). Then, calcium chloride dihydrate and magnesium chloride hexahydrate were dissolved in Dulbecco's phosphate buffered saline (−) (Product No. D-5652 manufactured by Sigma-Aldrich) to prepare Dulbecco's phosphate buffered saline (+). 0.005 mL of each of the compositions was added to 1 mL of the Dulbecco's phosphate buffered saline (+), and the formation of a depot was visually checked. The formation of a depot was evaluated in such a way that the depot is determined as formed if a mass formed of the composition deposited is observed.

A short description of data set [7]: Depot formation evaluation test (2): solvents of the polypeptide A. Type of data set: physicochemical. As to the method:
Solvents of the polypeptide A were examined.
Compositions 2 to 6 and Comparative Examples 6 and 7 were prepared by adding 0.01 mL of an aqueous solution of the polypeptide A at 1% (w/v) (containing 1% by mass of the polypeptide A per 100 mL of water) to 0.09 mL of each of various solvents, followed by stirring. 0.005 mL of each of the compositions was administered to 1 mL of the Dulbecco's phosphate buffered saline (+), and the formation of a depot was visually checked.

`O=C(CO)Nc1cc(CSc2ncccc2C(=O)Nc2ccc(OC(F)(F)F)cc2)ccn1` [Drug A, 2-[[[2-[(hydroxyacetyl)amino]-4-pyridinyl]methyl]thio]-N-[4-(trifluoromethoxy)phenyl]-3-pyridinecarboxamide]: the Property result was “Solution” in data set [1] (Test 1: Drug A 20 mg in DMSO 0.9 mL + water 0.1 mL, stirred at room temperature (25° C.) overnight); “Solution” in data set [1] (Test 2: Drug A 60 mg in DMSO 0.9 mL + water 0.1 mL, stirred at 25° C. overnight); “Suspension” in data set [1] (Test 3: Drug A 60 mg in water 1 mL, stirred at 25° C. overnight); “Solution” in data set [1] (Test 4: Drug A 25 mg in PEG 400 1 mL, stirred at 25° C. overnight); “Solution” in data set [1] (Test 5: Drug A 25 mg in PEG 400 0.9 mL + water 0.1 mL, stirred at 25° C. overnight); “Solution” in data set [1] (Test 6: Drug A 25 mg in PEG 400 0.8 mL + water 0.2 mL, stirred at 25° C. overnight). In addition, the Property result in data set [1] (Test 7: Drug A 25 mg in water 1 mL, stirred at 25° C. overnight) was “Suspension”. For the same molecule, the “Dissolution of the drug in solution containing DMSO or PEG 400” value in data set [1] (solution containing DMSO or PEG 400) is reported as “can dissolve the drug”. In addition, the “Dissolution of the drug in water” value in data set [1] (water) is on record as “cannot be dissolved in water”. The “cell proliferation inhibitory action” value in data set [2] is recorded as “demonstrated a cell proliferation inhibitory action”. For the same molecule, in data set [3], the “tumor growth inhibitory action” value is “demonstrated a tumor growth inhibitory action”. In addition, the “paw edema inhibitory action” value in data set [4] is listed as “demonstrated a paw edema inhibitory action”. In addition, the “choroidal neovascularization inhibitory action” value in data set [5] was “demonstrated a choroidal neovascularization inhibitory action”.

As for “Ac-(Arg-Ala-Asp-Ala)4-NH2 [polypeptide A]”, the “Depot formation” value in data set [6] is recorded as “formed a depot”; in data set [7] (DMSO, PEG 200, PEG 400, glycofurol and N-methylpyrrolidone used as the solvents) it was “formed a depot”; in data set [7] (ethanol and N,N-dimethylacetamide used as the solvents), “did not form a depot”.
